In patent publication US11505835B2, “Method for determining the identity and antimicrobial susceptibility of a microorganism” (Q-linea AB, priority 2014, dated 2022):
In brackets after ≈: the same amount, converted by molar mass.

What was measured:
E. coli [1] = test: AST by counting individual bacteria in a flow cytometry type instrument (Aquila 400); MIC from differential growth relative to positive control; type: cell-based
Experimental: The sample was enriched for bacteria and at the same time the culture media was changed, in this case to Mueller-Hinton media (MH-media). E. coli bacteria were recovered via filtration through a 0.2 μm filter and the recovered bacteria were resuspended in MH-media to a concentration of approximately 10^8 CFU/ml in Müller Hinton broth before being diluted to approximately 10^6 CFU/ml in Müller Hinton Broth. Antibiotic solutions were prepared in a series of 2:1 serial dilutions in Müller Hinton broth at 10×test concentrations. The range of antibiotic concentrations was chosen based on identity of the bacteria and the antibiotic. […] A series of eight different concentrations was selected based on known clinical MIC values. Eight sample tubes containing 100 μl antibiotic solution at eight different concentrations and 800 μl Müller Hinton broth were prepared. One additional tube contains 900 μl Müller Hinton broth and no antibiotic as positive control. 100 μl bacterial suspension (10^6 CFU/ml) was added to all nine tubes. A negative control sample comprising 1000 μl Müller Hinton broth (i.e. no bacteria) is prepared as negative control. All tubes were incubated at 35° C. and samples were taken after 0, 4, 6 and 24 hours. Bacterial samples were prepared for counting as in Example 2. Bacterial AST profiles were determined using a flow cytometry based counting of individual bacteria in an Aquila 400 instrument (Q-linea AB, Sweden). Aquila 400 analysis was performed using the alexa 488 laser. […] MIC values for each antibiotic at different time points and cut-off values were calculated based on the differential bacterial growth.

E. coli [2] = test: MIC with Macrobroth dilution; type: cell-based; conditions: reference method; for MIC: Escherichia coli
E. coli [3] = conditions: determined by another lab; cited from earlier work
[4] = Escherichia coli, 4 h, cut-off 20%, 4 hours, Müller Hinton broth, 35° C., read-out: MIC
[5] = Escherichia coli, 6 h, cut-off 15%, 6 hours, Müller Hinton broth, 35° C., read-out: MIC
[6] = Escherichia coli, 6 h, cut-off 20%, 6 hours, Müller Hinton broth, 35° C., read-out: MIC
[7] = Escherichia coli, 24 h, cut-off 5%, 24 hours, Müller Hinton broth, 35° C., read-out: MIC
[8] = Escherichia coli, 24 h, cut-off 10%, 24 hours, Müller Hinton broth, 35° C., read-out: MIC
[9] = Escherichia coli, 24 h, cut-off 15%, 24 hours, Müller Hinton broth, 35° C., read-out: MIC
[10] = Escherichia coli, 4 h, cut-off 15%, 4 hours, Müller Hinton broth, 35° C., read-out: MIC
[11] = Escherichia coli, 6 h, cut-off 5%, 6 hours, Müller Hinton broth, 35° C., read-out: MIC
[12] = Escherichia coli, 6 h, cut-off 10%, 6 hours, Müller Hinton broth, 35° C., read-out: MIC
[13] = Escherichia coli, 24 h, cut-off 20%, 24 hours, Müller Hinton broth, 35° C., read-out: MIC
[14] = Escherichia coli, 4 h, cut-off 5%, 4 hours, Müller Hinton broth, 35° C., read-out: MIC
[15] = Escherichia coli, 4 h, cut-off 10%, 4 hours, Müller Hinton broth, 35° C., read-out: MIC

Row | Compound | MIC (E. coli [1]; [4]) [µg/mL] | MIC (E. coli [1]; [5]) [µg/mL] | MIC (E. coli [1]; [6]) [µg/mL] | MIC (E. coli [1]; [7]) [µg/mL] | MIC (E. coli [1]; [8]) [µg/mL] | MIC (E. coli [1]; [9]) [µg/mL] | MIC (E. coli [2]) [µg/mL] | MIC with E-test (E. coli [3]) [µg/mL] | MIC (E. coli [1]; [10]) [µg/mL] | MIC (E. coli [1]; [11]) [µg/mL] | MIC (E. coli [1]; [12]) [µg/mL] | MIC (E. coli [1]; [13]) [µg/mL] | MIC (E. coli [1]; [14]) [µg/mL] | MIC (E. coli [1]; [15]) [µg/mL] | also measured
1 | C[C@@H](O)[C@H]1C(=O)N2C(C(=O)O)=C(S[C@@H]3CN[C@H](C(=O)N(C)C)C3)[C@H](C)[C@H]12 [Meropenem] | 0.5 (≈ 1.3 µM) | 0.5 (≈ 1.3 µM) | 0.25 (≈ 0.652 µM) | 0.5 (≈ 1.3 µM) | 0.5 (≈ 1.3 µM) | 0.25 (≈ 0.652 µM) | 0.25 to 0.5 (≈ 0.652 to 1.3 µM) | ≤ 0.25 |  |  |  |  |  |  | MIC (E. coli [1]; Escherichia coli, 24 h): 0.125 µg/mL (≈ 0.326 µM)
2 | CO/N=C(\C(=O)N[C@@H]1C(=O)N2C(C(=O)O)=C(COC(C)=O)CS[C@H]12)c1csc(N)n1 [Cefotaxime] | 0.06 (≈ 0.132 µM) | 0.03 (≈ 0.0659 µM) | 0.03 (≈ 0.0659 µM) |  |  | 0.06 (≈ 0.132 µM) |  | ≤ 0.5 | 0.06 (≈ 0.132 µM) | 0.06 (≈ 0.132 µM) | 0.06 (≈ 0.132 µM) | 0.06 (≈ 0.132 µM) |  |  | 
3 | O=C(O)c1cn(C2CC2)c2cc(N3CCNCC3)c(F)cc2c1=O [Ciprofloxacin] | 0.008 (≈ 0.0241 µM) | 0.008 (≈ 0.0241 µM) | 0.004 (≈ 0.0121 µM) | 0.008 (≈ 0.0241 µM) | 0.008 (≈ 0.0241 µM) | 0.008 (≈ 0.0241 µM) | 0.016 (≈ 0.0483 µM) | ≤ 0.03 | 0.008 (≈ 0.0241 µM) | 0.008 (≈ 0.0241 µM) | 0.008 (≈ 0.0241 µM) | 0.008 (≈ 0.0241 µM) | 0.016 (≈ 0.0483 µM) | 0.008 (≈ 0.0241 µM) | 
4 | Gentamicin |  |  |  |  |  |  |  | 1 |  |  |  |  |  |  | MIC (E. coli [1]; cut-off 5%, 4 hours, Müller Hinton broth, 35° C.): 1 µg/mL; MIC (E. coli [1]; cut-off 5%, 6 hours, Müller Hinton broth, 35° C.): 0.5 µg/mL; MIC (E. coli [1]; cut-off 5%, 24 hours, Müller Hinton broth, 35° C.): 1 µg/mL; MIC (E. coli [1]; cut-off 10%, 4 hours, Müller Hinton broth, 35° C.): 0.5 µg/mL; MIC (E. coli [1]; cut-off 10%, 6 hours, Müller Hinton broth, 35° C.): 0.5 µg/mL; MIC (E. coli [1]; cut-off 10%, 24 hours, Müller Hinton broth, 35° C.): 1 µg/mL; MIC (E. coli [1]; cut-off 15%, 4 hours, Müller Hinton broth, 35° C.): 0.5 µg/mL; MIC (E. coli [1]; cut-off 15%, 6 hours, Müller Hinton broth, 35° C.): 0.5 µg/mL; MIC (E. coli [1]; cut-off 15%, 24 hours, Müller Hinton broth, 35° C.): 1 µg/mL; MIC (E. coli [1]; cut-off 20%, 4 hours, Müller Hinton broth, 35° C.): 0.5 µg/mL; MIC (E. coli [1]; cut-off 20%, 6 hours, Müller Hinton broth, 35° C.): 0.5 µg/mL; MIC (E. coli [1]; cut-off 20%, 24 hours, Müller Hinton broth, 35° C.): 1 µg/mL; MIC with Macrobroth dilution (E. coli [2]): 0.5 to 1 µg/mL
5 | CC(C)(O/N=C(\C(=O)N[C@@H]1C(=O)N2C(C(=O)[O-])=C(C[n+]3ccccc3)CS[C@H]12)c1csc(N)n1)C(=O)O [Ceftazidime] |  |  |  | 0.25 (≈ 0.457 µM) | 0.25 (≈ 0.457 µM) | 0.25 (≈ 0.457 µM) | 0.25 (≈ 0.457 µM) | ≤ 0.5 |  |  |  | 0.25 (≈ 0.457 µM) | 0.25 (≈ 0.457 µM) | 0.25 (≈ 0.457 µM) | 
